# Data taken from ChEMBL document CHEMBL3301448, “MMV Malaria Box screening against Toxoplasma gondii and Entamoeba histolytica”.
# How the values were obtained:
# [1] = system: Entamoeba histolytica; experiment: MMV: Primary screening was performed with each compound at a 30 uM final concentration and in triplicate in sealed 96-well polystyrene microtiter plates. Parasite inocula (100 ul) comprising 20000 parasites/ml were added to each well and grown at 37 degrees C in a humidified atmosphere of 5% CO2 for 72 h. Positive controls consisted of metronidazole at 1 mg/ml. The growth of E. histolytica trophozoites in each well was determined microscopically by measuring the diameters of the confluent cells in drug-containing wells relative to those in the nega- tive-control wells.; type: functional, organism-based
# [2] = system: Toxoplasma gondii; experiment: MMV: A total of 100ul of inoculum was added to each well (parasite/cell ratio, ~10:1; final volume, 200 ul). Six hours after inoculation, nonadherent parasites were removed, and 100 ul of complete DMEM (1% penicillin-streptomycin, 3% FBS) supplemented with inhibitors at different concentrations (2-fold serial dilutions starting from 30 uM) was added to all except the negative-control wells. Positive controls, consisting of pyrimethamine (PYR) and sulfadiazine (SDZ) (20-mg/ml stocks in DMSO), were tested at a 2mg/ml final concentration. Each test was performed in triplicate.; type: functional, organism-based; conditions: 6 h
SMILES,IC50 [1],IC50 [2]
COc1ccc2c(c1)C1(Nc3ccccc3-c3nc4ccccc4n31)C(=O)N2 (stereo not drawn),> 30 µM,> 30 µM
COc1cccc(Cn2c(Oc3ccccc3)nc3c2c(=O)n(C)c(=O)n3C)c1,> 30 µM,> 30 µM
CCOc1cc(CNC(C)C(O)c2ccccc2)cc(Cl)c1OCC (stereo not drawn),> 30 µM,> 30 µM
CCOc1c(Cl)cc(CNCC(O)c2ccccc2)cc1OC (stereo not drawn),> 30 µM,> 30 µM
OC(CNCC1CCCO1)Cn1c2ccc(Cl)cc2c2cc(Cl)ccc21 (stereo not drawn),> 30 µM,> 30 µM
COc1ccc2nc(C)cc(Nc3ccccc3O)c2c1,> 30 µM,> 30 µM
CCn1nc(-c2ccc(C(=O)OC)cc2)nc2c(=O)n(C)c(=O)nc1-2,> 30 µM,> 30 µM
CCOc1ccccc1CN1CCc2nc3cc(C(C)(C)C)nn3c(O)c2C1,> 30 µM,> 30 µM
Cc1cc(N2CCCC2)nc(Nc2ccc(NC(=O)CCc3ccccc3)cc2)n1,> 30 µM,> 30 µM
CN1CCN(c2ncnc3c2[nH]c2ccc(Cl)cc23)CC1,> 30 µM,> 30 µM
CC1(c2ccccc2)Nc2ccccc2-c2nc3ccccc3n21 (stereo not drawn),> 30 µM,> 30 µM
COc1cccc(C2(C)Nc3ccccc3-c3nc4ccccc4n32)c1 (stereo not drawn),> 30 µM,> 30 µM
CC(C)CNC(=O)c1c(N)n(CCc2ccccc2F)c2nc3ccccc3nc12,> 30 µM,26.8 µM
CC(C)(C)CC(C)(C)NCC(O)COc1ccc(Cl)cc1Cl (stereo not drawn),> 30 µM,> 30 µM
O=C(Nc1ccc(Br)cc1)Nc1cccc(Cl)c1,> 30 µM,> 30 µM
CN(C)CCNc1cc(-c2ccccc2)nc2ccccc12,> 30 µM,3.05 µM
COc1ccc2nc(C)cc(Nc3ccc(Cl)cc3)c2c1,> 30 µM,> 30 µM
O=C(NC1CCN(Cc2ccccc2)CC1)c1cc(-c2ccncc2)nc2ccc(Cl)cc12,> 30 µM,> 30 µM
CCC(O)c1ccc(Br)cc1NC(=O)c1cccc(Cl)c1 (stereo not drawn),> 30 µM,> 30 µM
COc1ccc2nc(C)cc(Nc3cccc(O)c3)c2c1,> 30 µM,> 30 µM
CN(C)CCCNCc1ccc(-c2ccc(F)c(Cl)c2)o1,> 30 µM,> 30 µM
O=c1nc(C=Cc2ccc(Br)cc2)oc2ccccc12,> 30 µM,> 30 µM
COc1ccc2nc(N)nc(C)c2c1,> 30 µM,> 30 µM

SMILES,IC50 [1],IC50 [2]
Cc1sc2ncnc(Sc3nc4ccccc4[nH]3)c2c1C,> 30 µM,13.9 µM
CCC(=O)Nc1nnc(Cc2ccc(OC)c(OC)c2)s1,> 30 µM,> 30 µM
CC(=O)Nc1nnc(SCc2c(C)cc(C(C)(C)C)cc2C)s1,> 30 µM,> 30 µM
O=C(Nc1ccc(CN2CCOCC2)cc1)c1ccc(-c2cc(Cl)ccc2Cl)o1,> 30 µM,> 30 µM
Cc1cc(Nc2cccc(F)c2)nc(NCc2ccccc2)n1,> 30 µM,> 30 µM
CCOc1ccc(C2N(C)c3ccccc3N2C)cc1,> 30 µM,> 30 µM
COc1cccc(C(=O)Nc2ccc(-c3nc4ccccc4[nH]3)cc2)c1,> 30 µM,> 30 µM
COCCn1c(C)nc2ccccc2c1=O,> 30 µM,> 30 µM
O=C(Nc1cccc(-c2nc3ccccc3[nH]2)c1)c1cccc(NC(=O)c2ccco2)c1,> 30 µM,> 30 µM
O=C(NC1CCN(Cc2ccccc2)CC1)c1cc(-c2cccnc2)nc2ccc(Cl)cc12,> 30 µM,> 30 µM
CCN(Cc1ccccc1)C1CCN(Cc2cc(Br)ccc2O)CC1,> 30 µM,> 30 µM
CCOc1cccc(C(=O)Nc2ccc(-c3nc4ccccc4[nH]3)cc2)c1,> 30 µM,> 30 µM
Clc1cc(Br)ccc1-c1ccc(CNCC2CCNCC2)o1,> 30 µM,> 30 µM
CCOc1ccccc1NC(=O)CN1CCN(C(=O)c2ccco2)CC1,> 30 µM,0.19 µM
COc1ccc(-c2nonc2NC(=O)c2cccc(Cl)c2)cc1OC,> 30 µM,> 30 µM
Cc1cc(NC(=O)c2ccc(-c3ccccc3)cc2)no1,> 30 µM,21.1 µM
CCOc1cc2c(cc1OCC)C(c1cc(C)c(O)c(C)c1)NCC2 (stereo not drawn),> 30 µM,12.8 µM
O=C1CC(O)(C(F)(F)C(F)(F)F)Oc2ccccc21 (stereo not drawn),> 30 µM,> 30 µM
COc1cc(SC)ccc1C(=O)N1CCCC(C)C1 (stereo not drawn),> 30 µM,> 30 µM
CC(C)c1ccc(CNCC(O)c2ccccc2)cc1 (stereo not drawn),> 30 µM,18.1 µM
CCOc1cc2c(cc1OCC)C(c1cc(Cl)c(O)c(OCC)c1)NCC2 (stereo not drawn),> 30 µM,> 30 µM
OC(CNC1CCCC1)Cn1c2ccccc2c2ccccc21 (stereo not drawn),> 30 µM,> 30 µM
COc1ccc(N2CCN(C(CNC(=O)CC(C)(C)C)c3ccc4c(c3)OCO4)CC2)cc1 (stereo not drawn),> 30 µM,> 30 µM

SMILES,IC50 [1],IC50 [2]
Cc1ccc(NC(=O)Nc2cccc(Cl)c2)cc1F,> 30 µM,> 30 µM
Oc1ccc(Br)cc1CN1CCN(Cc2cccc(F)c2)CC1,> 30 µM,> 30 µM
O=c1nc(C=Cc2ccc(Cl)cc2)oc2ccccc12,> 30 µM,> 30 µM
O=C(NCc1ccco1)C1CCN(S(=O)(=O)c2ccc(Br)cc2)CC1,> 30 µM,> 30 µM
CN(C)c1ccc(N2C(N)=NC(N)=NC2(C)C)cc1,> 30 µM,28.9 µM
COc1ccc(Nc2nc(NCc3ccccc3)c3ccccc3n2)cc1,> 30 µM,> 30 µM
COc1ccc(CN2CCN(Cc3ccccc3)CC2)c(O)c1,> 30 µM,> 30 µM
COc1cc2c(cc1OC)C1=NNC(=O)C1=NC(C)(C)C2,> 30 µM,> 30 µM
Oc1c(CN2CCN(c3ccccc3F)CC2)cc(Br)c2cccnc12,> 30 µM,> 30 µM
OC(CNCc1ccccc1)Cn1c2ccccc2c2ccccc21 (stereo not drawn),> 30 µM,> 30 µM
Oc1c2c(nc3cc(-c4ccccc4)nn13)CCCC2,> 30 µM,26.2 µM
CCCCc1c(C)nc2c(OC)cccc2c1O,> 30 µM,> 30 µM
Clc1ccc2c(N3CCCC3)ccnc2c1,> 30 µM,1.49 µM
CCOC(=O)C1CCN(C(=O)CN2C(=O)c3ccccc3C2c2c[nH]c3ccccc23)CC1 (stereo not drawn),> 30 µM,> 30 µM
CCOc1ccc(CCNC(=O)c2cccs2)cc1OCC,> 30 µM,> 30 µM
COc1ccc(C(=O)C2CC2c2ccc(Cl)cc2)cc1 (stereo not drawn),> 30 µM,> 30 µM
Cc1cc(N2CCN(C3CCCC3)CC2)n2c(nc3ccccc32)c1C#N,> 30 µM,> 30 µM
O=c1c2c([nH]c3ccccc13)CCCC2,> 30 µM,> 30 µM
CCCCOc1ccc(C(=O)Nc2cc(C)on2)cc1,> 30 µM,> 30 µM
CCc1ccc(Nc2cc(C)nc3nc(C)nn23)cc1,> 30 µM,> 30 µM
CCN(CC)S(=O)(=O)c1ccc(-c2csc(Nc3ccc(C)c(C)c3)n2)cc1,> 30 µM,> 30 µM
Cc1c(C)n(CC(O)CNC2CCCCC2C)c2ccccc12 (stereo not drawn),> 30 µM,> 30 µM
CCCCN(CCCC)S(=O)(=O)c1ccc(NC(=O)c2ccco2)cc1,> 30 µM,1.07 µM
